Test results reported in ChEMBL document CHEMBL4732242 (Eur J Med Chem, 2021).

Columns and labels:
[1] = biological target: T1, Dual specificity protein kinase CLK2 (Homo sapiens, UniProt P49760); assay: Inhibition of CLK2 (unknown origin) by NanoBRET cellular target engagement assay
[2] = biological target: T2, Dual specificity protein kinase CLK4 (Homo sapiens, UniProt Q9HAZ1); assay: Inhibition of CLK4 (unknown origin) by NanoBRET cellular target engagement assay
[3] = biological target: T3, Dual specificity tyrosine-phosphorylation-regulated kinase 2 (Homo sapiens, UniProt Q92630); assay: Inhibition of DYRK2 (unknown origin) by NanoBRET cellular target engagement assay
T3 sequence (Q92630 whole entry): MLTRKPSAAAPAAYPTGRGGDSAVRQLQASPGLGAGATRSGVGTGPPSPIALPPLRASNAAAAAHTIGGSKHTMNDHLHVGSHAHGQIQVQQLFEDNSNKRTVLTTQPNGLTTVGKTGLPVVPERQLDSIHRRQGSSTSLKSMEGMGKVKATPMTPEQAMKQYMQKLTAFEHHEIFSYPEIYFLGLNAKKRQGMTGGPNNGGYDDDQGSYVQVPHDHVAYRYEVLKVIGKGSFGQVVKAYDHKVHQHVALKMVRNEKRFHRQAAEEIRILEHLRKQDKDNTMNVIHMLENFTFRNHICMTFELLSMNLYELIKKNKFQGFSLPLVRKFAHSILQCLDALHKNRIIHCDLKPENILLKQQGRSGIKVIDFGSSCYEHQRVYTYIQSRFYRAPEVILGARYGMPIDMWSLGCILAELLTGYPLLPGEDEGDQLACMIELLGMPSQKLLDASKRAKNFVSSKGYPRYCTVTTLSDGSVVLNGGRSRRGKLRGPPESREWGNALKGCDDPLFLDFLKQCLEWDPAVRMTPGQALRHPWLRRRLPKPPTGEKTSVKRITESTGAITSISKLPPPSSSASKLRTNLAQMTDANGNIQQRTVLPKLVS

[4] = biological target: T4, Dual specificity protein kinase CLK3 (Homo sapiens, UniProt P49761); assay: Inhibition of CLK3 (unknown origin) by NanoBRET cellular target engagement assay
T4 sequence (P49761 whole entry): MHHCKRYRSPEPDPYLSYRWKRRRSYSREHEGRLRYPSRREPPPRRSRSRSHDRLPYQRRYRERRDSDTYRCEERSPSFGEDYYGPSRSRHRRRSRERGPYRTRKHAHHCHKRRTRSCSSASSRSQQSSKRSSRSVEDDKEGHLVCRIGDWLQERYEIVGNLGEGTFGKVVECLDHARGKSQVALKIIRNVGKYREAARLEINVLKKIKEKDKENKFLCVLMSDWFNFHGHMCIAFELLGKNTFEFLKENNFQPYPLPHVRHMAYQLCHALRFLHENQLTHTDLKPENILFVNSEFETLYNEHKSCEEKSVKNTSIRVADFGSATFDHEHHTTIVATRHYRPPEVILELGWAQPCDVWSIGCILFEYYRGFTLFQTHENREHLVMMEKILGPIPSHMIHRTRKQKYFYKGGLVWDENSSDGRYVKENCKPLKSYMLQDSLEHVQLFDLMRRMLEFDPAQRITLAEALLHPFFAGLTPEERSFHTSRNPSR

[5] = biological target: T5, Dual specificity protein kinase CLK1 (Homo sapiens, UniProt P49759); assay: Inhibition of CLK1 (unknown origin) by NanoBRET cellular target engagement assay
T5 sequence (P49759 whole entry): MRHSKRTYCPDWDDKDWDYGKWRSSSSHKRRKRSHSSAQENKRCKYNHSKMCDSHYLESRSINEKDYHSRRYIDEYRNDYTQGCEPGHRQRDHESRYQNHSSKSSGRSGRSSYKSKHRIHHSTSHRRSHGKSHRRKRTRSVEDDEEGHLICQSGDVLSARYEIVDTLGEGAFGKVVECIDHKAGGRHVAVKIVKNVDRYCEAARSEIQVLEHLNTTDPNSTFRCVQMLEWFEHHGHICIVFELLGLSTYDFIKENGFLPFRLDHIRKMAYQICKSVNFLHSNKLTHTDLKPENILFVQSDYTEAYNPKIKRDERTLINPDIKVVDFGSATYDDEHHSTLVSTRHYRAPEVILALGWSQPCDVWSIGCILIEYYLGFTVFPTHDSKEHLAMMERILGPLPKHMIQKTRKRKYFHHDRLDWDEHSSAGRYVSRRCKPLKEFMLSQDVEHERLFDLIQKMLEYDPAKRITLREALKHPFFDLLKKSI

[6] = biological target: Mitogen-activated protein kinase kinase kinase 10 (Homo sapiens, UniProt Q02779); assay: Inhibition of MLK2 (unknown origin) by NanoBRET cellular target engagement assay
[7] = biological target: Mitogen-activated protein kinase kinase kinase 9 (Homo sapiens, UniProt P80192); assay: Inhibition of MLK1 (unknown origin) by NanoBRET cellular target engagement assay
[8] = biological target: T5, Dual specificity protein kinase CLK1; assay: Inhibition of human recombinant CLK1 using ERMRPRKRQGSVR substrate by radiometric scintillation assay
[9] = biological target: T4, Dual specificity protein kinase CLK3; assay: Inhibition of human full length recombinant CLK3 using ERMRPRKRQGSVR substrate by radiometric scintillation assay
[10] = biological target: Dual specificity tyrosine-phosphorylation-regulated kinase 1A (Homo sapiens, UniProt Q13627); assay: Inhibition of human full length recombinant DYRK1A using RRRFRPASPLRGPP substrate by radiometric scintillation assay
[11] = biological target: T1, Dual specificity protein kinase CLK2; assay: Inhibition of human recombinant CLK2 using YRRAAVPPSPSLSR substrate by radiometric scintillation assay
[12] = biological target: Homeodomain-interacting protein kinase 1 (Homo sapiens, UniProt Q86Z02); assay: Inhibition of human recombinant HIPK1 using myelin substrate by radiometric scintillation assay
Chain of Homeodomain-interacting protein kinase 1 (Q86Z02 whole entry): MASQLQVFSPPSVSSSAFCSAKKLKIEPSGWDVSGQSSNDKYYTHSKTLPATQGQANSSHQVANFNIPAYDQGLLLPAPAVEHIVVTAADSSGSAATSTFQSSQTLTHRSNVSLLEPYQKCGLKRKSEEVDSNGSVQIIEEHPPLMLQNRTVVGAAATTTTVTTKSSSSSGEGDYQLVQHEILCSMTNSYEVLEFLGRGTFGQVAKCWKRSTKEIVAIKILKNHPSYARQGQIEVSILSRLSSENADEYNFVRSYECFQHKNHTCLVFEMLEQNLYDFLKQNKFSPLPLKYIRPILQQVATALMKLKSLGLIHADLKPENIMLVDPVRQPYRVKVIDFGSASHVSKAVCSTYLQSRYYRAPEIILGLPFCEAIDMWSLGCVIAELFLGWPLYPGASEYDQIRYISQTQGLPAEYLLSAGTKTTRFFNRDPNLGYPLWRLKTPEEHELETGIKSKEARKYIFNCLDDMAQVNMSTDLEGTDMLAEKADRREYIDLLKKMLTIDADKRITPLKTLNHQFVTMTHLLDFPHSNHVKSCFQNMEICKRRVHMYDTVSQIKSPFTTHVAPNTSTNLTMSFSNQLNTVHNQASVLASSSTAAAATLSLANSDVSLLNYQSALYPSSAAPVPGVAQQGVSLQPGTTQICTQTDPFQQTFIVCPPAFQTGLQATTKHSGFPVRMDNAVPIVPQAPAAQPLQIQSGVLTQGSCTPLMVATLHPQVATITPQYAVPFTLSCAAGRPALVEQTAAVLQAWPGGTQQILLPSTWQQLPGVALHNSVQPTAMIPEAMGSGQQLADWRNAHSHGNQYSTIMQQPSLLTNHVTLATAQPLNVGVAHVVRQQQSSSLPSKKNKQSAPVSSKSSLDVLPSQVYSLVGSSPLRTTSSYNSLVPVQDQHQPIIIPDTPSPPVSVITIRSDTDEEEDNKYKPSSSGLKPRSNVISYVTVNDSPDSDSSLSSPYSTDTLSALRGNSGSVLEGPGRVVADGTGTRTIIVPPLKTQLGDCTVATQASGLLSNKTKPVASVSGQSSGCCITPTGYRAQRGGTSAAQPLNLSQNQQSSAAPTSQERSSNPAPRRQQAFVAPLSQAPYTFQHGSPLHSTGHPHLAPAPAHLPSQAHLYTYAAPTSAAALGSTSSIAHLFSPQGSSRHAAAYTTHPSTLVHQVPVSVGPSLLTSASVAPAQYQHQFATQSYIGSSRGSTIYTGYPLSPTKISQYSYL

[13] = biological target: Dual specificity tyrosine-phosphorylation-regulated kinase 1B (Homo sapiens, UniProt Q9Y463); assay: Inhibition of human full length recombinant DYRK1B using RRRFRPASPLRGPP substrate by radiometric scintillation assay
Chain of Dual specificity tyrosine-phosphorylation-regulated kinase 1B (Q9Y463 whole entry): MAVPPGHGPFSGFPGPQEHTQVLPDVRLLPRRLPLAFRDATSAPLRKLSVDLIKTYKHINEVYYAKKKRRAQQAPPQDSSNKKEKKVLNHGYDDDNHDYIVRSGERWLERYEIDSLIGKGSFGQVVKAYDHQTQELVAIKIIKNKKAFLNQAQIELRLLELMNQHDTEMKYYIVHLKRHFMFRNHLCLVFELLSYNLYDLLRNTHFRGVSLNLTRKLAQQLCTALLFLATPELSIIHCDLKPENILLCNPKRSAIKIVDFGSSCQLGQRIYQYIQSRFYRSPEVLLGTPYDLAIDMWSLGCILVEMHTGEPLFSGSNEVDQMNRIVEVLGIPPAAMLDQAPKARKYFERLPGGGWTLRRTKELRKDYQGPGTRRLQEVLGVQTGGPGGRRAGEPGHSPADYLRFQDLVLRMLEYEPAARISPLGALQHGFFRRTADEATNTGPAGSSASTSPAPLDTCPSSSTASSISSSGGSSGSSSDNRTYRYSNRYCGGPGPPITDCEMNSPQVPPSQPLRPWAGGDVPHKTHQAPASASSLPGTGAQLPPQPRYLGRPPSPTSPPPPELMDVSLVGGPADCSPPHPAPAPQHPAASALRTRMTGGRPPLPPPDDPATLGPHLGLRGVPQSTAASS

[14] = biological target: Homeodomain-interacting protein kinase 2 (Homo sapiens, UniProt Q9H2X6); assay: Inhibition of human recombinant HIPK2 using myelin substrate by radiometric scintillation assay
[15] = biological target: T2, Dual specificity protein kinase CLK4; assay: Inhibition of human recombinant CLK4 using YRRAAVPPSPSLS substrate by radiometric scintillation assay
[16] = biological target: T6, Homeodomain-interacting protein kinase 3 (Homo sapiens, UniProt Q9H422); assay: Inhibition of human recombinant HIPK3 using myelin substrate by radiometric scintillation assay
T6 sequence (Q9H422 whole entry): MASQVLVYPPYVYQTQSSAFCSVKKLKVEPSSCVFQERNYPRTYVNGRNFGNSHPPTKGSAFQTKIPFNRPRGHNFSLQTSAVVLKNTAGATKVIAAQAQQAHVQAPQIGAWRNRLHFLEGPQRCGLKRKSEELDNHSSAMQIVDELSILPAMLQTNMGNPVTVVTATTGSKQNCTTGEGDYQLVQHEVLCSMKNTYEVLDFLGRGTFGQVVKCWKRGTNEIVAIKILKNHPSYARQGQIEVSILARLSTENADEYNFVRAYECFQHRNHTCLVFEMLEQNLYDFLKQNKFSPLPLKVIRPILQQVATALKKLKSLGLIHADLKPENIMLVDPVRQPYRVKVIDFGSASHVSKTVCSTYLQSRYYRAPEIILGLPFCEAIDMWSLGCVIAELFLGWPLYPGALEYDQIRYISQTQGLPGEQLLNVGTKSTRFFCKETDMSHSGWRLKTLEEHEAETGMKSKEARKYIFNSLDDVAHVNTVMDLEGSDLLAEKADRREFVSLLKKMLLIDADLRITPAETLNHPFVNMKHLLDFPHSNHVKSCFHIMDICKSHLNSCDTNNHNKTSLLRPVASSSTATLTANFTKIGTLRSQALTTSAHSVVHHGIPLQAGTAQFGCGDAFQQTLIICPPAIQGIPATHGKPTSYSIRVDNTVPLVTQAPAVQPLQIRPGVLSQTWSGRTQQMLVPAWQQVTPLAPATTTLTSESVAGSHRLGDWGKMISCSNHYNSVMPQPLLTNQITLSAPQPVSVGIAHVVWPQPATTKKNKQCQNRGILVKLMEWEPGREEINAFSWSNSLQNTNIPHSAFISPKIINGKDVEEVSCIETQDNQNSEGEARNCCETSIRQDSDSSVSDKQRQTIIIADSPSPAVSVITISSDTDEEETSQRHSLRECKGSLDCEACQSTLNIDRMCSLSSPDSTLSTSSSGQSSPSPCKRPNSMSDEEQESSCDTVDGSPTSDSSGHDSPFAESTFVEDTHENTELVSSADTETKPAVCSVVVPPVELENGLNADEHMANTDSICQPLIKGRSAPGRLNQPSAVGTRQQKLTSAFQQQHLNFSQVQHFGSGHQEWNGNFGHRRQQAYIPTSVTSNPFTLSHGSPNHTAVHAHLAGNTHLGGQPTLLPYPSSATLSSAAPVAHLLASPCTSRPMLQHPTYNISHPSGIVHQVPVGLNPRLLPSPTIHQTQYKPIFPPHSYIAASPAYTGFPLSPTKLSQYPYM

[17] = biological target: T3, Dual specificity tyrosine-phosphorylation-regulated kinase 2; assay: Inhibition of human full length recombinant DYRK2 using casein substrate by radiometric scintillation assay
[18] = system: MCF7; assay: Cytotoxicity against human MCF7 cells assessed as reduction in cell viability incubated for 48 hrs by CyQuant assay; type: functional, cell-based; details: MCF7, 48 h
[19] = biological target: Cyclin-dependent kinase-like 3 (Homo sapiens, UniProt Q8IVW4); assay: Inhibition of CDKL3 (unknown origin) by NanoBRET cellular target engagement assay
[20] = biological target: T6, Homeodomain-interacting protein kinase 3; assay: Inhibition of HIPK3 (unknown origin)

T2 sequence (Q9HAZ1 whole entry): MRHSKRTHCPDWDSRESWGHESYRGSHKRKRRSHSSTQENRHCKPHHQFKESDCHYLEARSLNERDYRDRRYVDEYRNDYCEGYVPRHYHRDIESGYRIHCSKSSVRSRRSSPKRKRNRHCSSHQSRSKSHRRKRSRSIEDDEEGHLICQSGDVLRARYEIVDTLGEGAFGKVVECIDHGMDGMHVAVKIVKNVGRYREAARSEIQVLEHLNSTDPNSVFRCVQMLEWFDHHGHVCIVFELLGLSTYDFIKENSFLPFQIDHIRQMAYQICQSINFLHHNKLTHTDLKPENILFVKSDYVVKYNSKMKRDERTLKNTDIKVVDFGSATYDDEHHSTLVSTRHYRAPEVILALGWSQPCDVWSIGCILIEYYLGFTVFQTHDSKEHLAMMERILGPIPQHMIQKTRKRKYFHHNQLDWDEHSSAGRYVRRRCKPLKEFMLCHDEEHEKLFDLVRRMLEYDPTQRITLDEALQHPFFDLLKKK
T1 sequence (P49760 whole entry): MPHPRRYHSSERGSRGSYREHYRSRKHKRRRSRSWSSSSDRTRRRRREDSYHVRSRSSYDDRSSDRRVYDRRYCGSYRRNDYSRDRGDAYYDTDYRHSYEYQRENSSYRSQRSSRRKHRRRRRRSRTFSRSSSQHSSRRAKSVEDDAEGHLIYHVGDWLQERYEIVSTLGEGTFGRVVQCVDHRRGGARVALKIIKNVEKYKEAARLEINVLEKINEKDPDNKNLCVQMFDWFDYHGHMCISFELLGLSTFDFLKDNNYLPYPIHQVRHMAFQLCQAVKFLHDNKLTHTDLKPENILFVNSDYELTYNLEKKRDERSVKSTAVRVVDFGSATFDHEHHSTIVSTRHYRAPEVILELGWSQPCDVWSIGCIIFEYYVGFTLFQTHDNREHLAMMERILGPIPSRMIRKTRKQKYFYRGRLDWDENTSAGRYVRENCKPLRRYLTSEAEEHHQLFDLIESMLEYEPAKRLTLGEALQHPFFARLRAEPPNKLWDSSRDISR

SMILES | IC50 [1] | IC50 [2] | IC50 [3] | IC50 [4] | IC50 [5] | IC50 [6] | IC50 [7] | IC50 [8] | IC50 [9] | IC50 [10] | IC50 [11] | IC50 [12] | IC50 [13] | IC50 [14] | IC50 [15] | IC50 [16] | IC50 [17] | IC50 [18] | IC50 [19] | IC50 [20]
COC(=N)c1nc2ccc3ncnc(Nc4ccc(OC)cc4F)c3c2s1 | > 3000 nM | > 3000 nM | > 3000 nM | > 3000 nM | > 3000 nM | > 3000 nM | > 3000 nM |  |  |  |  |  |  |  |  |  |  |  |  | 
CC1(c2ccc(-c3coc4ccc(-c5cn[nH]c5)nc34)cc2)CC1 |  |  |  |  |  |  |  | 308 nM | > 3000 nM | > 3000 nM | 155 nM | 220 nM | > 3000 nM | 68 nM | 320 nM | 441 nM | > 3000 nM |  |  | 
CN1CCC(c2cccc(-c3coc4ccc(-c5cnn(C)c5)nc34)c2)CC1 |  |  |  |  |  |  |  | 169 nM | > 3000 nM | 568 nM | 667 nM | 354 nM | > 3000 nM | 260 nM | 116 nM | 692 nM | > 3000 nM |  |  | 
C=C(C)c1ccc(-c2coc3ccc(-c4cn[nH]c4)nc23)cc1 |  |  |  |  |  |  |  | 68 nM | > 3000 nM | 1370 nM | 40 nM | 51 nM | > 3000 nM | 41 nM | 42 nM | 65 nM | > 3000 nM |  |  | 
COc1ccc(-c2coc3ccc(-c4cn[nH]c4)nc23)cc1 |  |  |  |  |  |  |  |  |  |  | 39 nM | 33 nM |  | 15 nM | 46 nM | 66 nM | 1000 nM |  |  | 
Cn1cc(-c2ccc3occ(-c4ccc(C(C)(C)C)cc4)c3n2)cn1 |  |  |  |  |  |  |  | > 3000 nM | > 3000 nM | > 3000 nM | > 3000 nM | > 3000 nM | > 3000 nM | > 3000 nM | > 3000 nM | > 3000 nM | > 3000 nM |  |  | 
CC(C)(C)c1ccc(-c2coc3ccc(-c4cnsc4)nc23)cc1 |  |  |  |  |  |  |  | > 3000 nM | > 3000 nM | > 3000 nM | > 3000 nM | > 3000 nM | > 3000 nM | > 3000 nM | > 3000 nM | > 3000 nM | > 3000 nM |  |  | 
c1ccc2cc(-c3coc4ccc(-c5cn[nH]c5)nc34)ccc2c1 |  |  |  |  |  |  |  |  |  |  | 25 nM | 16 nM |  | 5 nM | 31 nM | 38 nM | 1430 nM |  |  | 
Cn1cc(-c2ccc3occ(-c4cccc(-c5ccncc5)c4)c3n2)cn1 |  |  |  |  |  |  |  |  |  |  |  |  |  |  |  |  |  | 4600 nM |  | 
c1n[nH]cc1-c1ccc2occ(-c3ccc(C45CC6CC(CC(C6)C4)C5)cc3)c2n1 |  |  |  |  |  |  |  | > 3000 nM | > 3000 nM | > 3000 nM | > 3000 nM | > 3000 nM | > 3000 nM | > 3000 nM | > 3000 nM | > 3000 nM | > 3000 nM |  |  | 
Cn1cc(-c2ccc3occ(-c4cccc(-c5cc[nH]n5)c4)c3n2)cn1 |  |  |  |  |  |  |  | 14 nM | 1640 nM | 116 nM | 16 nM | 125 nM | 1890 nM | 30 nM | 15 nM | 128 nM | > 3000 nM |  |  | 
CC(C)(C)c1ccc(-c2coc3ccc(-c4nn[nH]n4)nc23)cc1 |  |  |  |  |  |  |  | > 3000 nM | > 3000 nM | > 3000 nM | > 3000 nM | 545 nM | > 3000 nM | 357 nM | > 3000 nM | 720 nM | > 3000 nM |  |  | 
c1n[nH]cc1-c1ccc2occ(-c3ccc(C4CCCCC4)cc3)c2n1 |  |  |  |  |  |  |  | 2110 nM | > 3000 nM | > 3000 nM | > 3000 nM | > 3000 nM | > 3000 nM | 654 nM | 776 nM | > 3000 nM | > 3000 nM |  |  | 
c1ccc(-c2ccc(-c3coc4ccc(-c5cn[nH]c5)nc34)cc2)cc1 |  |  |  |  |  |  |  | 114 nM | > 3000 nM | > 3000 nM | 529 nM | 278 nM | > 3000 nM | 172 nM | 126 nM | 807 nM | > 3000 nM |  |  | 
c1ccc(Cc2ccc(-c3coc4ccc(-c5cn[nH]c5)nc34)cc2)cc1 |  |  |  |  |  |  |  | 450 nM | > 3000 nM | > 3000 nM | 1840 nM | 921 nM | > 3000 nM | 484 nM | 355 nM | > 3000 nM | > 3000 nM |  |  | 
Cn1cc(-c2ccc3occ(-c4cccc(-c5cn[nH]c5)c4)c3n2)cn1 |  |  |  |  |  |  |  | 16 nM | 1590 nM | 139 nM | 37 nM | 177 nM | 1300 nM | 102 nM | 19 nM | 164 nM | > 3000 nM | 30000 nM |  | 
c1ccc(-c2coc3ccc(-c4cn[nH]c4)nc23)cc1 |  |  |  |  |  |  |  |  |  |  | 72 nM | 62 nM |  | 42 nM | 41 nM | 128 nM | 1150 nM |  |  | 
Cn1cc(-c2ccc3occ(-c4ccc(C(C)(C)C)cc4)c3n2)nn1 |  |  |  |  |  |  |  | > 3000 nM | > 3000 nM | > 3000 nM | > 3000 nM | > 3000 nM | > 3000 nM | > 3000 nM | > 3000 nM | > 3000 nM | > 3000 nM |  |  | 
Cn1cc(-c2coc3ccc(-c4cn[nH]c4)nc23)cn1 |  |  |  |  |  |  |  |  |  |  | 176 nM | 235 nM |  | 28 nM | 45 nM |  | 1210 nM |  |  | 
Cn1cc(-c2ccc3occ(-c4cccc(C5CCNCC5)c4)c3n2)cn1 |  |  |  |  |  |  |  | 59 nM | > 3000 nM | 324 nM | 90 nM | 264 nM | > 3000 nM | 179 nM | 52 nM | 300 nM | > 3000 nM |  |  | 
Cn1ccc(-c2ccc3occ(-c4ccc(C(C)(C)C)cc4)c3n2)n1 |  |  |  |  |  |  |  | > 3000 nM | > 3000 nM | > 3000 nM | > 3000 nM | > 3000 nM | > 3000 nM | > 3000 nM | > 3000 nM | > 3000 nM | > 3000 nM |  |  | 
CC(C)Cc1ccc(-c2coc3ccc(-c4cn[nH]c4)nc23)cc1 |  |  |  |  |  |  |  | 671 nM | > 3000 nM | > 3000 nM | 827 nM | 685 nM | > 3000 nM | 501 nM | 896 nM | 1230 nM | > 3000 nM |  |  | 
CC(C)(C)c1ccc(-c2coc3ccc(-c4cnn(CCN5CCOCC5)c4)nc23)cc1 |  |  |  |  |  |  |  | > 3000 nM | > 3000 nM | > 3000 nM | > 3000 nM | > 3000 nM | > 3000 nM | > 3000 nM | > 3000 nM | > 3000 nM | > 3000 nM |  |  | 
Cn1cc(-c2cccc(-c3coc4ccc(-c5cnn(C)c5)nc34)c2)cn1 |  |  |  |  |  |  |  | 18 nM | > 3000 nM | 147 nM | 16 nM | 209 nM | 2420 nM | 70 nM | 17 nM | 125 nM | 771 nM | > 100000 nM |  | 
CC(C)(C)c1ccc(-c2coc3ccc(-c4cc[nH]n4)nc23)cc1 |  |  |  |  |  |  |  | > 3000 nM | > 3000 nM | > 3000 nM | > 3000 nM | > 3000 nM | > 3000 nM | 1280 nM | > 3000 nM | > 3000 nM | > 3000 nM |  |  | 
O=C(Nc1c[nH]nc1-c1nc2cc(CN3CCOCC3)ccc2[nH]1)NC1CC1 [AT-9283] |  |  | 570 nM |  |  |  |  |  |  |  |  |  |  |  |  |  |  |  | 1100 nM | 
CN(C)C[C@@H]1CCn2cc(c3ccccc32)C2=C(C(=O)NC2=O)c2cn(c3ccccc23)CCO1 [RUBOXISTAURIN] |  |  |  |  |  |  |  |  |  |  |  |  |  |  |  |  |  |  |  | 100 nM
